The source made the active and inactive calls. The rule behind the calls is not given here.
Assays:
Mus musculus [1] = assay: Anticonvulsant activity in ip dosed Swiss albino mouse assessed as reduction of subcutaneous pentylenetetrazole-induced seizure; format: functional
Mus musculus [2] = assay: Anticonvulsant activity in ip dosed Swiss albino mouse assessed as reduction of maximal electroshock-induced seizure after 0.5 hrs; format: functional; conditions: read-out: MED
Mus musculus [3] = assay: Anticonvulsant activity in ip dosed Swiss albino mouse assessed as reduction of maximal electroshock-induced seizure after 4 hrs; format: functional; conditions: read-out: MED
Mus musculus [4] = assay: Anticonvulsant activity in ip dosed Swiss albino mouse assessed as reduction of subcutaneous pentylenetetrazole-induced seizure after 0.5 hrs; format: functional; conditions: read-out: MED
Mus musculus [5] = assay: Anticonvulsant activity in Swiss albino mouse assessed as reduction of subcutaneous pentylenetetrazole-induced seizure at 300 mg/kg, ip after 4 hrs; format: functional, organism-based
Mus musculus [6] = assay: Neurotoxicity in Swiss albino mouse assessed as inability of animal to maintain equilibrium on rod at 300 mg/kg, ip after 0.5 hrs by rotarod test; format: toxicity, organism-based; conditions: in vivo
Mus musculus [7] = assay: Neurotoxicity in Swiss albino mouse assessed as inability of animal to maintain equilibrium on rod at 300 mg/kg, ip after 4 hrs by rotarod test; format: toxicity, organism-based; conditions: in vivo
Mus musculus [8] = assay: Neurotoxicity in ip dosed Swiss albino mouse assessed as inability of animal to maintain equilibrium on rod after 4 hrs by rotarod test; format: toxicity, organism-based; conditions: in vivo
[9] = Neurotoxicity in ip dosed Swiss albino mouse assessed as inability of animal to maintain equilibrium on rod after 0.5 hrs by rotarod test; format: toxicity, organism-based; conditions: Swiss albino, in vivo
Mus musculus [10] = assay: Anticonvulsant activity in ip dosed Swiss albino mouse assessed as reduction of maximal electroshock-induced seizure; format: functional
Mus musculus [11] = assay: Anticonvulsant activity in ip dosed Swiss albino mouse assessed as reduction of subcutaneous pentylenetetrazole-induced seizure after 4 hrs; format: functional; conditions: read-out: MED
Mus musculus [12] = assay: Protective index, ratio of TD50 for ip dosed Swiss albino mouse assessed as inability of animal to maintain equilibrium on rod after 0.5 hrs by rotarod test to ED50 for Swiss albino mouse assessed as reduction of maximal electroshock-induced seizure; format: functional
Mus musculus [13] = assay: Protective index, ratio of TD50 for ip dosed Swiss albino mouse assessed as inability of animal to maintain equilibrium on rod after 0.5 hrs by rotarod test to ED50 for Swiss albino mouse assessed as subcutaneous pentylenetetrazole-induced seizure; format: functional
Mus musculus [14] = assay: Anticonvulsant activity in Swiss albino mouse assessed as reduction of maximal electroshock-induced seizure at 300 mg/kg, ip after 0.5 hrs; format: functional, organism-based
Mus musculus [15] = assay: Anticonvulsant activity in Swiss albino mouse assessed as reduction of maximal electroshock-induced seizure at 300 mg/kg, ip after 4 hrs; format: functional, organism-based
Mus musculus [16] = assay: Anticonvulsant activity in Swiss albino mouse assessed as reduction of subcutaneous pentylenetetrazole-induced seizure at 300 mg/kg, ip after 0.5 hrs; format: functional, organism-based

Row | SMILES | ED50 (Mus musculus [1]) | minimal effective dose (Mus musculus [2]) | minimal effective dose (Mus musculus [3]) | minimal effective dose (Mus musculus [4]) | Activity (Mus musculus [5]) | Activity (Mus musculus [6]) | Activity (Mus musculus [7]) | MTC (Mus musculus [8]) | TD50 at 0.5 h [9] | ED50 (Mus musculus [10]) | minimal effective dose (Mus musculus [11]) | Ratio TD50/ED50 (Mus musculus [12]) | Ratio TD50/ED50 (Mus musculus [13]) | Activity (Mus musculus [14]) | Activity (Mus musculus [15]) | Activity (Mus musculus [16])
1 | CCCC(CCC)C(=O)O [VALPROIC ACID] | 149 mg/kg | – | – | – | – | – | – | – | – | – | – | – | – | – | – | –
2 | CCOC(=O)C1C(c2ccccc2Cl)NC(c2ccccc2Cl)C(C(=O)OCC)S1(=O)=O (stereo not drawn) | – | 100 mg/kg | 300 mg/kg | 300 mg/kg | inactive | Non-toxic | Non-toxic | – | – | – | – | – | – | – | – | –
3 | CCOC(=O)C1C(c2ccc(OC)cc2)NC(c2ccc(OC)cc2)C(C(=O)OCC)S1(=O)=O (stereo not drawn) | – | 100 mg/kg | 300 mg/kg | 300 mg/kg | inactive | Non-toxic | – | 300 mg/kg | – | – | – | – | – | – | – | –
4 | CCC1(c2ccccc2)C(=O)NC(=O)NC1=O [PHENOBARBITAL] | 13.2 mg/kg | – | – | – | – | – | – | – | 68.2 mg/kg | 20.6 mg/kg | – | – | – | – | – | –
5 | CCOC(=O)C1C(c2ccccc2)NC(c2ccccc2)C(C(=O)OCC)S1(=O)=O (stereo not drawn) | 58.6 mg/kg | 30 mg/kg | 100 mg/kg | 300 mg/kg | – | Non-toxic | Non-toxic | – | 131 mg/kg | 14.8 mg/kg | 300 mg/kg | 8.8 | 2.2 | – | – | –
6 | CCOC(=O)C1C(c2ccc([N+](=O)[O-])cc2)NC(c2ccc([N+](=O)[O-])cc2)C(C(=O)OCC)S1(=O)=O (stereo not drawn) | 73.2 mg/kg | 30 mg/kg | 100 mg/kg | 300 mg/kg | – | Non-toxic | Non-toxic | – | 190 mg/kg | 11.4 mg/kg | 300 mg/kg | 16.7 | 2.6 | – | – | –
7 | CCOC(=O)C1C(c2ccc(C)cc2)NC(c2ccc(C)cc2)C(C(=O)OCC)S1(=O)=O (stereo not drawn) | 90.2 mg/kg | 30 mg/kg | 100 mg/kg | 300 mg/kg | – | Non-toxic | Non-toxic | – | 227 mg/kg | 14.4 mg/kg | 300 mg/kg | 15.7 | 2.5 | – | – | –
8 | CCC1(C)CC(=O)NC1=O (stereo not drawn) [ETHOSUXIMIDE] | – | – | – | 100 mg/kg | – | Non-toxic | Non-toxic | – | – | – | 300 mg/kg | – | – | inactive | inactive | –
9 | CCOC(=O)C1C(c2ccccn2)NC(c2ccccn2)C(C(=O)OCC)S1(=O)=O (stereo not drawn) | – | 300 mg/kg | 300 mg/kg | – | inactive | Non-toxic | – | 300 mg/kg | – | – | – | – | – | – | – | inactive
10 | CCOC(=O)C1C(c2cc3ccccc3[nH]2)NC(c2cc3ccccc3[nH]2)C(C(=O)OCC)S1(=O)=O (stereo not drawn) | 56.8 mg/kg | 30 mg/kg | 100 mg/kg | 300 mg/kg | – | Non-toxic | Non-toxic | – | 119 mg/kg | 13.2 mg/kg | 300 mg/kg | 9 | 2.1 | – | – | –
11 | CCOC(=O)C1C(c2cccnc2)NC(c2cccnc2)C(C(=O)OCC)S1(=O)=O (stereo not drawn) | – | 300 mg/kg | 300 mg/kg | – | inactive | Non-toxic | – | 300 mg/kg | – | – | – | – | – | – | – | inactive
